US4169941A, “Derivatives of XK-88-5 and process for the production thereof” (Abbott Laboratories, priority 1976, dated 1979)
≈ marks a conversion by molar mass, not a printed value. Read-outs that look alike come from different tables or passages of the source.

How the values were obtained:
[1] = test system: Staphylococcus aureus Ky 4279; assay: MIC, agar dilution method (pH 8.0); format: cell-based; settings: KY4279, read-out: minimum inhibitory concentration (MIC)
From the text: (§1) The following Table 1 illustrates minimum inhibitory concentrations (MIC) of 2"-N-formyl-XK-88-5 against various Gram-positive and Gram-negative bacteria determined by agar dilution method (pH 8.0).

[2] = test system: Klebsiella pheumoniae KY 4275; assay: MIC, agar dilution method (pH 8.0); format: cell-based; settings: KY4275, read-out: minimum inhibitory concentration (MIC)
From the text: as §1

Erwinia aroideae KY 3241 = assay: MIC, agar dilution method (pH 8.0); format: cell-based; settings: Pectobacterium carotovorum, KY3241, read-out: minimum inhibitory concentration (MIC)
From the text: as §1

Proteus vulgaris KY 4277 = assay: MIC, agar dilution method (pH 8.0); format: cell-based; settings: KY4277, read-out: minimum inhibitory concentration (MIC)
From the text: as §1

[3] = test system: Bacillus subtilis KY 4273; assay: MIC, agar dilution method (pH 8.0); format: cell-based; settings: KY4273, read-out: minimum inhibitory concentration (MIC)
From the text: as §1

Escherichia coli KY 4271 = assay: MIC, agar dilution method (pH 8.0); format: cell-based; settings: KY4271, read-out: minimum inhibitory concentration (MIC)
From the text: as §1

[4] = test system: Salmonella typhosa KY 4278; assay: MIC, agar dilution method (pH 8.0); format: cell-based; settings: Salmonella enterica, pH 8, read-out: minimum inhibitory concentration (MIC)
From the text: as §1

[5] = test system: Pseudomonas alkaligenes KY 4656; assay: MIC, agar dilution method (pH 8.0); format: cell-based; settings: KY4656, read-out: minimum inhibitory concentration (MIC)
From the text: as §1

Shigella sonnei KY 4281 = assay: MIC, agar dilution method (pH 8.0); format: cell-based; settings: KY4281, read-out: minimum inhibitory concentration (MIC)
From the text: as §1

Vibrio percolans KY 4174 = assay: MIC, agar dilution method (pH 8.0); format: cell-based; settings: Comamonas terrigena, KY4174, read-out: minimum inhibitory concentration (MIC)
From the text: as §1

[6] = test system: various Gram-positive and Gram-negative bacteria; assay: antibacterial activity (general statement); format: cell-based; settings: in words
From the text: as §1

[7] = test system: various Gram-positive and Gram-negative bacteria; settings: in words; parent antibiotic, background; cited from earlier work

Row | SMILES | MIC [1] | MIC [2] | MIC (Erwinia aroideae KY 3241) | MIC (Proteus vulgaris KY 4277) | MIC [3] | MIC (Escherichia coli KY 4271) | MIC [4] | MIC [5] | MIC (Shigella sonnei KY 4281) | MIC (Vibrio percolans KY 4174) | antibacterial activity [6] | antibacterial activity [7]
1 | COC1COC(OC2C(N)CC(N)C(OC3OC(CN)CC(O)C3N)C2O)C(NC=O)C1N (stereo not drawn) [2"-N-formyl-XK-88-5] | 0.32 µg/mL (≈ 0.669 µM) | 0.64 µg/mL (≈ 1.34 µM) | 1.25 µg/mL (≈ 2.61 µM) | 2.5 µg/mL (≈ 5.22 µM) | 0.32 µg/mL (≈ 0.669 µM) | 2.5 µg/mL (≈ 5.22 µM) | 2.5 µg/mL (≈ 5.22 µM) | 2.5 µg/mL (≈ 5.22 µM) | 2.5 µg/mL (≈ 5.22 µM) | 10 µg/mL (≈ 20.9 µM) | strong antibacterial activity | –
2 | COC1COC(OC2C(N)CC(N)C(OC3OC(CN)CC(O)C3N)C2O)C(N)C1N (stereo not drawn) [XK-88-5] | – | – | – | – | – | – | – | – | – | – | – | high antibacterial activity
